Reference: patent US20240245800A1, “HIGHLY SPECIFIC RABBIT SINGLE -DOMAIN ANTIBODIES FOR DRUG DELIVERY IN IMMUNOTHERAPY APPLICATIONS” (TECHNOPHAGE, INVESTIGAÇÃO E DESENVOLVIMENTO EM …, priority 2021, published 2024)

Key:
LN229 cell line = experiment: BEB-glioblastoma (BEB-GBM) in vitro model: LN229 viability; format: cell-based; design: dose or concentration left out as unconfirmed; details: PAN free added to apex, 24 h
Description: FIG. 18. Activity of liposomal drug delivery in the BEB-Glioblastoma model, wherein an in vitro BEB-GBM model was developed to mimic the complexity of drug delivery to a brain tumour. This model combined a monolayer of bEnd.3, as the BBB barrier, and the LN229 cell line at the base as the glioblastoma tumour.
FIG. 18B. PAN encapsulated RG3 and FC5 functionalized liposomes were analysed in terms of BEB translocation and delivery of PAN to a glioblastoma cell line and compared with non-functionalized unloaded liposomes (Control). […] The cytotoxic effect of PAN in LN229 was determined by adding WST-1 reagent. The values were obtained from duplicates of two independent experiments ([…]).

Description for bEnd.3: The integrity of the bEnd.3 was measured by determining the translocation of the FD40 fluorescent probe while LN229 viability was determined using WST-1 reagent and OD450 nm measurement following 24 h incubation, and
The in vitro BEB models were optimized based on previous studies [45]. Briefly, bEnd.3 cells were cultured in DMEM, supplemented with 10% FBS and 1% penicillin/streptomycin (Lonza, Basel, Switzerland) antibiotic solution. Cells were cultured in a humidified atmosphere of 5% CO2 at 37° C. and the medium changed every other day. […] Samples were recovered from the apex and base and fluorescence intensity was measured in a microtiter plate reader (BMG Labtech, Fluostar OPTIMA, Ortenberg, Germany) with an excitation of 485 nm and a maximum emission at 520 nm.
To study the BEB translocation efficiency of the Lip-PAN-RG3 and Lip-PAN-FC5 liposomes and subsequent drug delivery and cytotoxic activity of PAN in a glioblastoma cell line, a dual in vitro non-contact co-culture model was established with bEnd.3 and LN229 cells. […] Following the 24 h treatment, WST-1 was added to the plate, and O.D.450 nm was measured following 24 h incubation. Each data point was determined using three replicate wells and two independent experiments were carried out in different days. […] In parallel, the integrity of the BEB model was measured as described previously.

In the case of Cc1[nH]c2ccccc2c1CCNCc1ccc(/C=C/C(=O)NO)cc1 [PAN, panobinostat], the “effect on LN229 viability in BEB-GBM model” value (LN229 cell line) is reported as “no significant effect” and the “effect on BEB integrity in BEB-GBM model” value (bEnd.3) is reported as “no significant effect”.
